Experiment [1] has as its system p21. Nature of the experiment: p21 expression in the pancreas of mice that received CPX (immunoblot). In kind it is in vivo. Particulars: wild type mice, oral CPX 0-25 mg/kg daily for 5 days; effect from as low as 5 mg/kg (FIG. 4). The method, then: Western Blotting. The mouse islets were treated with CPX 20 μM for 24 h and lysed in RIPA buffer [50 mM Tris, pH 7.2; 150 mM NaCl; 1% sodium deoxycholate; 0.1% SDS; 1% Triton-X 100; 10 mM NaF; 1 mM Na3VO4; protease inhibitor cocktail (1:1000, Sigma, St. Louis, Mo.)] and were subjected to immunoblot analysis by standard methods. Proteins were resolved on a 10% SDS-PAGE and transferred to a nitrocellulose membrane (Bio-Rad, Hercules, Calif.). […] After incubation with enhanced chemiluminescence reagents (Santa Cruz biotechnology Inc.), membranes were analyzed using an Image J software for Windows. To determine if CPX treatment induces p21 levels in the pancreas, mice received orally CPX at 0-25 mg/kg daily for 5 days and the levels of p21 were assessed. […]

In experiment [2] the test system is pancreatic islets. Nature of the experiment: Pancreatic islet numbers by histology (H&E). In kind it is in vivo. The following applies: diabetic mice treated with CPX (FIG. 8). From the text:
In Vivo Analysis of Anti-Diabetic Effect of CPX. Mice were randomly grouped. A group of C57BI/6 mice 4-5 weeks old, were fed with either a solution of 10% sucrose and a diet containing 40% kcal as a high-fat diet (HFD; Open Source Diets (New Brunswick, N.J., USA) D12451, 40% calories/fat with free access to (10%) sweetened water (sucrose) or a control chow diet containing 10% of kcal as fat (low-fat diet) and drinking water with no added sucrose (control). Mice with a glucose concentration exceeding 180 mg/dL were considered diabetic, after 2 consecutive glucose measurements. The blood glucose levels were measured using an Accu-Check blood glucose monitor (Roche, Indianapolis, Ind., USA) using blood sample collected from the tail vein. Diabetic mice were treated with either treated daily for 20 days by oral gavages with CPX (25 mg/kg) prepared in a solution (4% ethanol, 5.2% Tween 80, and 5.2% PEG 400) or vehicle control. Pancreata were preserved in 10% buffered formalin for later histological examination. Immunostaining. Pancreatic tissue samples were fixed at 10% buffered formalin, processed a defined paraffin-embedding procedure before embedding in paraffin, sectioning into 4-μm tissue sections, and stained with hematoxylin and eosin by standard methods.

In experiment [3] the test system is C57BI/6 mice. Nature of the experiment: Intraperitoneal insulin tolerance (insulin sensitivity) test. The format is in vivo. As to the method:
Glucose Level Determination and Intraperitoneal Insulin Tolerance Test. Mice were fasted for 6 h. Glucose levels of mice were measured by an Accu-Chek Active meter (ROCHE) with blood sample obtained from the tail. For glucose tolerance, mice were injected i.p. with 2 g glucose/kg blood glucose was checked at different time points as indicated (at either 0, 30, 60, 90, 120, 160, 220 min.). For insulin resistance test, mice were injected intraperitoneally at a dose of 0.75 units/kg with human insulin (0.75 U/kg body weight; Sigma) at different time points as indicated, as for glucose tolerance after insulin injection and blood glucose was measured as described.

In experiment [4] the test system is wt mice receiving normal diet. The experiment can be described thus: Fasting glucose in non-diabetic wild type mice on normal diet. Particulars: non-diabetic wt mice on normal diet with CPX (FIG. 5B, FIG. 7A). The format is in vivo, C57BI/6 mice. The source says: In Vivo Analysis of Anti-Diabetic Effect of CPX. Mice were randomly grouped. A group of C57BI/6 mice 4-5 weeks old, were fed with either a solution of 10% sucrose and a diet containing 40% kcal as a high-fat diet (HFD; Open Source Diets (New Brunswick, N.J., USA) D12451, 40% calories/fat with free access to (10%) sweetened water (sucrose) or a control chow diet containing 10% of kcal as fat (low-fat diet) and drinking water with no added sucrose (control). Mice with a glucose concentration exceeding 180 mg/dL were considered diabetic, after 2 consecutive glucose measurements. The blood glucose levels were measured using an Accu-Check blood glucose monitor (Roche, Indianapolis, Ind., USA) using blood sample collected from the tail vein. […] Glucose levels of mice were measured by an Accu-Chek Active meter (ROCHE) with blood sample obtained from the tail. […] For insulin resistance test, mice were injected intraperitoneally at a dose of 0.75 units/kg with human insulin (0.75 U/kg body weight; Sigma) at different time points as indicated, as for glucose tolerance after insulin injection and blood glucose was measured as described. In order to test if the antidiabetic activity of CPX was elicited only in diabetic mice or in non-diabetic mice as well, plasma glucose levels were assessed in wt mice that were receiving normal diet in combination with CPX.

Entries after “also recorded” stand apart in the source; their conditions may differ.

Consider `Cc1cc(C2CCCCC2)n(O)c(=O)c1` [CPX, 6-cyclohexyl-1-hydroxy-4-methylpyridin-2(1H)-one], for which the “p21 expression in the pancreas” value in experiment [1] is “effectively stimulated the expression of p21”. Besides, the islet numbers result in experiment [2] is recorded as “increased significantly”. For the same compound, the insulin sensitivity entry was “restored the response of diabetic mice to acute administration of glucose” in experiment [3] (diabetic mice, CPX vs saline (FIG. 6B)) and “not affected” in experiment [3] (non-diabetic wt mice on normal diet, CPX vs saline (FIG. 7C)). The “glucose levels (fasting)” value in experiment [4] was “no reduction of glucose levels was recorded; also recorded: not affected”.

The record behind these values is US10576151B2, “Ciclopirox for use in modulation of glucose homeostasis” (UNIVERSITY OF SOUTH CAROLINA, priority 2015, dated 2020).
